Consider 34 compounds from ChEMBL document CHEMBL2390940, “Synthesis and receptor binding studies of novel 4,4-disubstituted arylalkyl/arylalkylsulfonyl piperazine and piperidine-based derivatives as a new class of σ1 ligands” (Eur J Med Chem, 2013).

Experiment [1] concerns the target Sigma non-opioid intracellular receptor 1 (Cavia porcellus, UniProt Q60492).
The nature of experiment [2]: Displacement of [3H]DTG from sigma2 receptor in Sprague-Dawley rat liver membrane after 150 mins by liquid scintillation counting analysis. The class given is cell membranes.
Experiment [3] can be described thus: Binding affinity to sigma receptor (unknown origin). The arrangement: species or system Homo sapiens.

Chain of Sigma non-opioid intracellular receptor 1 (Q60492 whole entry): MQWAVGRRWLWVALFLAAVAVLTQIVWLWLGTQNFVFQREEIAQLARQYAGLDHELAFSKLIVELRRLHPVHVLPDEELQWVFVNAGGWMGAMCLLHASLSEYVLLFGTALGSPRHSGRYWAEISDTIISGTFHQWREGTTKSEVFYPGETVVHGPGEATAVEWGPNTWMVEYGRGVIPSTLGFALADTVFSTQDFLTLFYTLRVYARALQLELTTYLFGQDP

As for `Cc1cccc(CS(=O)(=O)N2CCN(Cc3ccccc3)CC2)c1`, the Ki in experiment [1] came to 0.0359 µM; in experiment [2], 0.0894 µM. In experiment [1], `c1ccc(CCCN2CCN(Cc3ccccc3)CC2)cc1` showed a Ki of 0.02 µM. For the compound `O=S(=O)(/C=C/c1ccccc1)N1CCC(Cc2ccccc2)CC1`, the Ki is 0.138 µM in experiment [1] and 1.97 µM in experiment [2]. The compound `O=C(CCCN1CCC(O)(c2ccc(Cl)cc2)CC1)c1ccc(F)cc1` [HALOPERIDOL] came in with an inhibitory constant (Ki) in experiment [2] of 0.0435 µM. `O=S(=O)(CCc1ccccc1)N1CCC(Cc2ccccc2)CC1` gave a Ki in experiment [2] of 0.187 µM. In the case of `O=S(=O)(CCc1ccccc1)N1CCN(Cc2ccccc2)CC1`, the Ki in experiment [1] was 0.0784 µM; in experiment [2], 0.191 µM. For `O=S(=O)(Cc1ccccc1)N1CCN(Cc2cccc(F)c2)CC1`, in that order: 0.0687 µM and 0.181 µM. For `O=S(=O)(Cc1ccccc1)N1CCN(Cc2ccccc2)CC1`, in that order: 0.0112 µM and 0.0484 µM. `O=S(=O)(Cc1cccc(I)c1)N1CCC(Cc2ccccc2)CC1`: the figures for the Ki in experiment [1] and in experiment [2] were 0.00096 µM and 0.0918 µM, respectively. As for `c1ccc(CCCN2CCC(Cc3ccccc3)CC2)cc1`, the Ki in experiment [1] stood at 0.0004 µM; in experiment [2] it was 0.0033 µM.

As to `OC[C@@H]1CN(CCc2ccccc2)CCN1Cc1ccccc1`, the Ki amounted to 0.038 µM in experiment [1] and 0.177 µM in experiment [2].

As for `O=S(=O)(Cc1cccc(Br)c1)N1CCN(Cc2ccccc2)CC1`, the Ki in experiment [1] was found to be 0.0299 µM; in experiment [2] it was 0.148 µM. Taken in the same sequence, the figures for `Cc1cccc(CN2CCN(S(=O)(=O)Cc3ccccc3)CC2)c1` were 0.015 µM and 0.151 µM.

For `Cc1ccccc1NC(=N)Nc1ccccc1C` [DITOLYLGUANIDINE], the Ki in experiment [2] amounted to 0.0584 µM. Turning to `O=S(=O)(/C=C/c1ccccc1)N1CCN(Cc2ccccc2)CC1`, the results for the Ki in experiment [1] and in experiment [2] were 0.201 µM and 8.14 µM, respectively.

Regarding `O=S(=O)(Cc1cccc(I)c1)N1CCN(Cc2ccccc2)CC1`, the Ki amounted to 0.0027 µM in experiment [1] and 0.0888 µM in experiment [2]. With `Cc1cccc(CS(=O)(=O)N2CCC(Cc3ccccc3)CC2)c1`, the Ki in experiment [1] stood at 0.0047 µM; in experiment [2] it was 0.0489 µM. Turning to `CC(C)=CCN1CC[C@]2(C)c3cc(O)ccc3C[C@H]1[C@H]2C` [(+)-PENTAZOCINE], the Ki in experiment [2] stood at 1.87 µM. As to `O=S(=O)(c1ccccc1)N1CCC(Cc2ccccc2)CC1`, the Ki in experiment [1] is 0.0243 µM; in experiment [2] it was 0.0567 µM. On to `O=S(=O)(c1ccc(Cl)cc1)N1CCN(Cc2ccccc2)CC1`, for which the Ki in experiment [1] is 0.969 µM; in experiment [2], 1.55 µM. Taken in the same sequence, the figures for `O=S(=O)(c1ccccc1)N1CCN(Cc2ccccc2)CC1` were 0.0284 µM and 0.0871 µM. On to `O=S(=O)(/C=C/c1ccc(Br)cc1)N1CCN(Cc2ccccc2)CC1`, for which the Ki in experiment [1] was 1.07 µM; in experiment [2] it was 0.485 µM. For `O=S(=O)(Cc1ccccc1)N1CCN(Cc2cccc(I)c2)CC1`, the Ki in experiment [1] was 0.0018 µM; in experiment [2], 0.117 µM. With `Clc1ccc(/C=C/CN2CCN(Cc3ccccc3)CC2)cc1`, the Ki in experiment [3] turned out to be 0.0003 µM. `c1ccc(CN2CCN(Cc3ccccc3)CC2)cc1` yielded a Ki in experiment [2] of 1.27 µM. `O=S(=O)(c1ccc(Cl)cc1)N1CCC(Cc2ccccc2)CC1`: the Ki worked out at 0.551 µM in experiment [1] and 0.778 µM in experiment [2]. On to `O=S(=O)(Cc1cccc(Cl)c1)N1CCC(Cc2ccccc2)CC1`, for which the Ki came to 0.04 µM in experiment [1] and 0.199 µM in experiment [2].

Take `O=S(=O)(Cc1ccccc1)N1CCN(Cc2cccc(Cl)c2)CC1`: the results for the Ki in experiment [1] and in experiment [2] were 0.0518 µM and 0.174 µM, respectively. For the compound `O=S(=O)(Cc1cccc(Cl)c1)N1CCN(Cc2ccccc2)CC1`, the Ki in experiment [1] amounted to 0.0681 µM; in experiment [2], 0.134 µM. Consider `COc1ccc(CN2CCN(S(=O)(=O)Cc3ccccc3)CC2)cc1`, for which the results for the Ki in experiment [1] and in experiment [2] were 0.192 µM and 2.13 µM, respectively.

For the compound `O=S(=O)(Cc1cccc(Br)c1)N1CCC(Cc2ccccc2)CC1`, the values for the Ki in experiment [1] and in experiment [2] were 0.0016 µM and 0.0259 µM, respectively. Consider `O=S(=O)(Cc1ccccc1)N1CCN(Cc2ccc(Br)cc2)CC1`, for which the Ki was 0.0134 µM in experiment [1] and 0.288 µM in experiment [2].

Turning to `O=S(=O)(/C=C/c1ccc(Br)cc1)N1CCC(Cc2ccccc2)CC1`, the Ki in experiment [1] was determined as 0.843 µM; in experiment [2], 0.248 µM.

As for `O=S(=O)(Cc1ccccc1)N1CCC(Cc2ccccc2)CC1`, the Ki in experiment [1] is 0.0099 µM; in experiment [2], 0.0389 µM.

The Ki is the equilibrium dissociation constant of an inhibitor or competing ligand from its target.
